Test results taken from patent US20240067651A1 (Biohaven Therapeutics Ltd., priority 2019, published 2024).
Each block holds one compound with its values, some of them ahead of it.

Experiments:
[1] = Stability in Simulated Gastric Fluid (SGF); assay type: in vitro ADME; parameters: key: % parent compound remaining relative to 0-minute sample
Summary of the method: (§1)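 2 μg/mL final; SGF + pepsin pH 1.2 or SIF + pancreatin pH 6.8; 37° C, 150 rpm, 0–60 min. ACN quench with propranolol IS, LC-MS/MS. % parent vs 0 min; t1/2 from ln plot.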

[2] = Plasma Stability; assay type: in vitro ADME, human
Summary of the method: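 Parent compound quantified by LC-MS/MS after acetonitrile precipitation, reported as percent of control remaining (triplicate). Incubation: 1 hour, 37° C, fresh human plasma, compound at 1 μM.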

[3] = Caco-2 Permeability Assay; assay type: in vitro ADME, human; details: human
Summary of the method: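 Bidirectional transport at 37 °C for 90 min, 10 μM donor concentration, with or without Pgp inhibitor, across 21-day Caco-2 monolayers with TEER >600 […] in HEPES-buffered HBSS, pH 7.4. LC-MS/MS of donor and receiver samples gives Papp, B→A/A→B efflux ratio and mass recovery.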

[4] = Stability in Simulated Intestinal Fluid (SIF); assay type: in vitro ADME; parameters: key: % parent compound remaining relative to 0-minute sample
Summary of the method: as §1

[5] = Caco-2, pH 7.4, Caco-2 monolayer
[6] = bare number, no % and no time given
[7] = % remaining at 1 h, human plasma, 1 μM, 37° C.
[8] = Caco-2, pH 7.4, donor 10 μM, 90 minutes, 37° C., direction not given

SMILES: CC(C)OCCn1c(SCOC(=O)[C@@H](N)Cc2ccccc2)nc(=O)c2c1ccn2COC(=O)[C@@H](N)Cc1ccccc1.O=C(O)C(F)(F)F.O=C(O)C(F)(F)F [Example 309, bis(trifluoroacetic acid) {[5-({[(2S)-2-amino-3-phenylpropanoyl]oxy}methyl)-4-oxo-1-[2-(propan-2-yloxy)ethyl]-1H,4H,5H-pyrrolo[3,2-d]pyrimidin-2-yl]sulfanyl}methyl (2S)-2-amino-3-phenylpropanoate]
- SGF ([1]; % remaining @ 1 h): 98% @ 1 h
- human Plasma stability ([2]; % remaining @ 1 h): 5% @ 1 h
- Papp at 90 min, 10 µM ([3]; Caco-2, pH 7.4): < 1.23 nm/s
- SIF ([4]; % remaining @ 1 h): 86% @ 1 h

SMILES: CC(C)C[C@H](N)C(=O)OCSc1nc(=O)c2c(ccn2COC(=O)[C@@H](N)CC(C)C)n1CCOC(C)C.O=C(O)C(F)(F)F.O=C(O)C(F)(F)F [Example 321, bis(trifluoroacetic acid) {[5-({[(2S)-2-amino-4-methylpentanoyl]oxy}methyl)-4-oxo-1-[2-(propan-2-yloxy)ethyl]-1H,4H,5H-pyrrolo[3,2-d]pyrimidin-2-yl]sulfanyl}methyl (2S)-2-amino-4-methylpentanoate]
- SGF ([1]; % remaining @ 1 h): 92%@ 1 h
- human Plasma stability ([2]; % remaining @ 1 h): 1%@ 1 h
- Papp at 90 min, 10 µM ([3]; Caco-2, pH 7.4): < 3.65 nm/s
- SIF ([4]; % remaining @ 1 h): 2%@ 1 h

SMILES: CC(C)OCCn1c(SCOC(=O)N(C)CC(F)(F)F)nc(=O)c2[nH]ccc21 [Example 94, ({4-oxo-1-[2-(propan-2-yloxy)ethyl]-1H,4H,5H-pyrrolo[3,2-d]pyrimidin-2-yl}sulfanyl)methyl N-methyl-N-(2,2,2-trifluoroethyl)carbamate]
- SGF [1, 6]: 99
- human Plasma stability [2, 7]: 99% remaining
- Papp at 90 min, 10 µM [3, 8]: 151 nm/s
- SIF [4, 6]: 95

SMILES: CCCCCOC(=O)OCn1ccc2c1c(=O)nc(S)n2CCOC(C)C [Example 216]
- SGF ([1]; % remaining at 1 h in simulated gastric fluid, the 17th table): 91% remaining
- human Plasma stability ([2]; % remaining at 1 h in human plasma, the 17th table): 1% remaining
- Papp at 90 min, 10 µM ([3]; Caco-2, pH 7.4, Caco-2 monolayer, the 17th table): 45.9 nm/s
- SIF ([4]; % remaining at 1 h in simulated intestinal fluid, the 17th table): 1% remaining

SMILES: CC(C)OCCn1c(=S)[nH]c(=O)c2c1ccn2COC(=O)CCCCNC(=O)[C@@H](N)[C@@H](C)O.O=C(O)C(F)(F)F [Example 39]
- SGF ([1]; % remaining at 1 h in simulated gastric fluid): 91% remaining
- human Plasma stability ([2]; % remaining at 1 h in human plasma): 5% remaining
- Papp at 90 min, 10 µM [3, 5]: < 1.96 nm/s
- SIF ([4]; % remaining at 1 h in simulated intestinal fluid): 91% remaining

SMILES: CSCC[C@@H](N)C(=O)OCCC(=O)OCn1ccc2c1c(=O)[nH]c(=S)n2CCOC(C)C.O=C(O)C(F)(F)F [Example 366, trifluoroacetic acid 3-oxo-3-({4-oxo-1-[2-(propan-2-yloxy)ethyl]-2-sulfanylidene-1H,2H,3H,4H,5H-pyrrolo[3,2-d]pyrimidin-5-yl}methoxy)propyl (2R)-2-amino-4-(methylsulfanyl)butanoate]
- SGF ([1]; simulated gastric fluid, remaining at 1 h): 76% remaining
- human Plasma stability ([2]; human plasma, remaining at 1 h): 74% remaining
- Papp at 90 min, 10 µM [3, 5]: < 7.6 nm/s
- SIF ([4]; simulated intestinal fluid, remaining at 1 h): 2% remaining

The next lines start with the values.

- SGF ([1]; simulated gastric fluid, at 1 h): 99% remaining
- human Plasma stability ([2]; human plasma, at 1 h): 63% remaining
- Papp at 90 min, 10 µM [3, 5]: 216 nm/s
- SIF ([4]; simulated intestinal fluid, at 1 h): 99% remaining
SMILES: Cc1cccc(N(C)C(=O)OCSc2nc(=O)c3[nH]ccc3n2CCOC(C)C)c1 [Example 245]

- SGF ([1]; % remaining at 1 h, SGF with pepsin pH 1.2, 2 μg/mL, 37° C.): 95%
- human Plasma stability [2, 7]: 76%
- Papp at 90 min, 10 µM [3, 8]: 27.2 nm/s
- SIF ([4]; % remaining at 1 h, SIF with pancreatin pH 6.8, 2 μg/mL, 37° C.): 2%
SMILES: CC(C)OCCn1c(=S)[nH]c(=O)c2c1ccn2COC(=O)CCCCCCCCCCCCCCC(=O)O [Example 255, 16-oxo-16-({4-oxo-1-[2-(propan-2-yloxy)ethyl]-2-sulfanylidene-1H,2H,3H,4H,5H-pyrrolo[3,2-d]pyrimidin-5-yl}methoxy)hexadecanoic acid]

- SGF ([1]; % remaining @ 1 h): 100% @ 1 h
- human Plasma stability ([2]; % remaining @ 1 h): 2% @ 1 h
- Papp at 90 min, 10 µM ([3]; Caco-2, pH 7.4): 129 nm/s
- SIF ([4]; % remaining @ 1 h): 70% @ 1 h
SMILES: CC(C)OCCn1c(=S)[nH]c(=O)c2c1ccn2COC(=O)[C@H](N)C(C)C [Example 300, trifluoroacetic acid {4-oxo-1-[2-(propan-2-yloxy)ethyl]-2-sulfanylidene-1H,2H,3H,4H,5H-pyrrolo[3,2-d]pyrimidin-5-yl}methyl (2R)-2-amino-3-methylbutanoate]
